Measured values reported in BindingDB's records for patent US20260049089 (Shanghai Apeiron Therapeutics Company, 2026).

How the values were obtained:
GTPase KRas (G12D) [1] = target: T1, GTPase KRas (G12D) (Homo sapiens, UniProt P01116, G12D); experiment: KRAS-GDP Protein Assay
Procedure: 6> Add 5 μL of KRAS solution prepared with Buffer 1 to each well of the high-signal control group and compound test wells. Add 5 μL of Buffer 1 to each well of the low-signal control group. The final concentration of KRAS in the reaction is 5 nM (initially 40 nM, optimized to 5 nM). Incubate at room temperature for 1 hour.7> Add 5 μL of a solution containing SOS1 and GTP prepared with Buffer 2 to each well. Final concentrations in the reaction: 50 nM for SOS1 (initially 250 nM) and 125 μM for GTP (initially 625 μM). Incubate at room temperature for 1 hour.8> Add 5 μL of a solution containing cRAF and AlphaLISA Nickel Acceptor beads prepared with Buffer 2 to each well. Final concentrations in the reaction: 50 nM for cRAF and 20 μg/mL for AlphaLISA Nickel Acceptor beads. Incubate at room temperature for 1 hour.9> Add 5 μL of an AlphaScreen GSH Donor beads solution prepared with Buffer 2 to each well. Final concentration in the reaction: 20 μg/mL. Incubate at room temperature for 1 hour.10> Measure the signal values using an EnVision plate reader. Excitation wavelength: 680 nm, Emission wavelength: 615 nm.

GTPase KRas (G12D) [2] = target: T1, GTPase KRas (G12D); experiment: KRAS-GTP Protein Assay
Procedure: 6> Mix the prepared protein solution with the SOS1-GTP solution (at the same concentration as used for the GDP protein assay) in a 1:1 volume ratio. Pre-incubate the mixture at room temperature for 1 hour.7> Add 10 μL of the mixture from Step I to each well of the high-signal control group and compound test wells. For the low-signal control group, add 5 μL of Buffer 1 and 5 μL of the SOS1-GTP mixture to each well. Incubate at room temperature for 1 hour.8> Add 5 μL of a solution containing cRAF and AlphaLISA Nickel Acceptor beads prepared with Buffer 2 to each well. Final concentrations in the reaction: 50 nM for cRAF and 20 μg/mL for AlphaLISA Nickel Acceptor beads. Incubate at room temperature for 1 hour.9> Add 5 μL of an AlphaScreen GSH Donor beads solution prepared with Buffer 2 to each well. Final concentration in the reaction: 20 μg/mL. Incubate at room temperature for 1 hour.10> Measure the signal values using an EnVision plate reader. Excitation wavelength: 680 nm, Emission wavelength: 615 nm.

GTPase KRas (G12D) [3] = target: T1, GTPase KRas (G12D); experiment: KRAS-GCP Protein Assay
Procedure: 6> Add 5 μL of KRAS solution prepared with Buffer 1 to each well of the high-signal control group and compound test wells; […]. The final concentration of KRAS in the reaction is 5 nM. Incubate at room temperature for 1 hour.7> Add 5 μL of Buffer 2 to each well. Incubate at room temperature for 1 hour.8> Add 5 μL of a solution containing cRAF and AlphaLISA Nickel Acceptor beads prepared with Buffer 2 to each well. Final concentrations in the reaction: 50 nM for cRAF and 20 μg/mL for AlphaLISA Nickel Acceptor beads. Incubate at room temperature for 1 hour.9> Add 5 μL of an AlphaScreen GSH Donor beads solution prepared with Buffer 2 to each well. Final concentration in the reaction: 20 μg/mL. Incubate at room temperature for 1 hour.10> Measure the signal values using an EnVision plate reader.

T1 sequence (P01116 whole entry G12D): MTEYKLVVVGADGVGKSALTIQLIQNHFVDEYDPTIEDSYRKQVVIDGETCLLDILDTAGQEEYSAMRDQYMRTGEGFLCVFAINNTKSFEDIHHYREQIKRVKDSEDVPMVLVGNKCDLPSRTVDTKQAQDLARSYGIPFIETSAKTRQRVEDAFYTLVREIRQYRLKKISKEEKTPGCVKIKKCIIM

Compound	IC50 (GTPase KRas (G12D) [1]) [nM]	IC50 (GTPase KRas (G12D) [2]) [nM]	IC50 (GTPase KRas (G12D) [3]) [nM]
Oc1cc2c3c(c(F)ccc3c1)CCCCNc1cc3c(N4CC5CCC(C4)N5)nc(OC[C@@]45CCCN4C[C@H](F)C5)nc3c(F)c1-2 [US20260049089, Example 2]	2.87	3.23	> 1000
O=C1CCCCc2c(F)ccc3cc(O)cc(c23)-c2c(cc3c(N4CC5CCC(C4)N5)nc(OC[C@@]45CCCN4C[C@H](F)C5)nc3c2F)N1 [US20260049089, Example 4]	2.2	3.5	94.4
CN1CCCCc2c(F)ccc3cc(O)cc(c23)-c2c1cc1c(N3CC4CCC(C3)N4)nc(OC[C@@]34CCCN3C[C@H](F)C4)nc1c2F [US20260049089, Example 3]	2.31	3.24	> 1000
Oc1cc2c3c(c(F)ccc3c1)CCCCCNc1cc3c(N4CC5CCC(C4)N5)nc(OC[C@@]45CCCN4C[C@H](F)C5)nc3c(F)c1-2 [US20260049089, Example 5]	2.06	2.63	232
